# In patent US8088941B2, “Glycogen synthase kinase-3 inhibitors” (Tel Aviv University Future Technology Development L.P., priority 2001, dated 2012):
# Structures can show the parent of a compound that is named as a salt. Where two headings read alike, the source gives them in different places.
# What was measured:
# [1] = biological target: T1, recombinant rabbit GSK-3β (Oryctolagus cuniculus, UniProt G1T8E2); test: In vitro GSK-3 inhibition assay with PGS-1 peptide substrate; format: biochemical; conditions: for GSK-3 inhibition activity: preliminary inhibition assay, FIG. 5
# T1 sequence (G1T8E2 1-432): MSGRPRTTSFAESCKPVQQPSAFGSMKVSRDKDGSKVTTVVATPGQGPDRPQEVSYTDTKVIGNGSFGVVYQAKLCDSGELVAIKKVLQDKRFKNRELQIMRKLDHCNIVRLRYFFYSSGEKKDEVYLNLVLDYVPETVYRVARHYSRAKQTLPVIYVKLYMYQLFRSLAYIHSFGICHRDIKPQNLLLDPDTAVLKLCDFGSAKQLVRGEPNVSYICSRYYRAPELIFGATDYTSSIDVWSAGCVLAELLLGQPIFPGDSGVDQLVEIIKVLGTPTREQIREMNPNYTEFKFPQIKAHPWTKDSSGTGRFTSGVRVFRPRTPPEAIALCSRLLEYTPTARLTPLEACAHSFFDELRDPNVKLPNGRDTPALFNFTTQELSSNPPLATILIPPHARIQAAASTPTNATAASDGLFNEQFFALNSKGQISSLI
# Method: (§1) In vitro inhibition assays: Purified recombinant rabbit GSK-3β (Eldar-Finkelman et al., 1996) was incubated with peptide substrate PGS-1 ([…](p)EDEEE) (SEQ ID NO:1) or peptide substrate p9CREB (SEQ ID NO:2) and with phenyl phosphate, pyridoxal phosphate (P-5-P), GSC-1, GSC-2, GSC-3, GSC-4, GSC-5, GSC-6, GSC-7 or GSC-21 (structural formulas are depicted in FIG. 3), at indicated concentrations. The reaction mixture included Tris 50 mM (pH=7.3), 10 mM MgAc, ^32P[γ-ATP] (100 μM), 0.01% β-mercaptoethanol, and was incubated for 10 minutes at 30° C. Reactions were spotted on phosphocellulose paper (p81), washed with 100 mM phosphoric acid, and counted for radioactivity (as described in Eldar-Finkelman et al., 1996).
# In vitro inhibition assays: In a preliminary inhibition assay, the GSK-3 inhibition activity of the known compounds phenyl phosphate, pyridoxal phosphate, GSC-1, GSC-2 and GSC-3 was tested as described hereinabove.
# (§2) In an additional inhibition assay, the GSK-3 inhibition activity of GSC-1, GSC-2, GSC-3, GSC-4, and GSC-21 was tested. The ability of GSK-3 to phosphorylate PGS-1 peptide substrate was measured in the presence of indicated concentrations of these compounds. The results, presented in FIG. 6, represent the percentage of GSK-3 activity as compared with a control incubation without inhibitors and are mean of 2 independent experiments±SEM, where each point was assayed in triplicate.
# [2] = biological target: T1, recombinant rabbit GSK-3β; test: In vitro GSK-3 inhibition assay with p9CREB peptide substrate; format: biochemical
# Method: as §1
# as §2, with “In still” for “In”, “additional” for “additional inhibition”, “GSC-4, GSC-5, GSC-6,” for “GSC-4,”, “GSC-7” for “GSC-21”, “p9CREB” for “PGS-1”, “FIGS. 7a and 7b,” for “FIG. 6,”
# The kinetic nature of the inhibitors was studied by measuring the initial velocity as a function of the substrate concentration at several inhibitor concentrations. Lineweaver-Burk plots of the GSK-3 inhibition by these inhibitors confirmed the assumption that these are substrate-competitive inhibitors (data not shown). FIG. 8 presents the Lineweaver-Burk plot of the GSK-3 inhibition by gsc-7, as an exemplary inhibitor, represented by phosphate incorporation into p9CREB peptide substrate (CPM). […] Each point is a mean of duplicated sample.
# The ability of GSK-3 to phosphorylate p9CREB peptide substrate was measured in the presence of indicated concentrations of MP molecules, using the protocol described hereinabove in Example 3. The results, presented in FIG. 19, represent the percentage of GSK-3 activity in control incubation in which inhibitors were omitted. Results are mean of 2 independent experiments±SEM, where each point was assayed in duplicate.
# CDK-2 = CDK-2 (Homo sapiens, UniProt P24941); test: CDK-2 kinase activity with histone H1 substrate (selectivity); format: biochemical; conditions: final concentration of 2 mM, FIG. 9
# Method: The effect of GSC-4, GSC-5 and GSC-7 (100 and 200 μM) on other protein kinases was tested by incubating CDK-2 (1 unit) with a reaction mixture similar to that described hereinabove and containing histone H1 substrate (5 μg). The reactions were boiled with SDS sample buffer, separated on gel electrophoresis and autoradiographed.
# The selectivity of the novel compounds towards GSK-3 was measured by evaluating the inhibition of CDK-2, a kinase closely related to GSK-3. Thus, CDK-2 activity was assayed in the presence of ^32P[γ-ATP] and histone H1 as a substrate. GSC-4, GSC-5 and GSC-7 were added at a final concentration of 2 mM.
# glycogen synthase = test: Activation of glycogen synthase in C2C12 cells; format: cell-based; conditions: 2.5 hours, FIG. 10
# Method: Activation of glycogen synthase by GSK-3 inhibitors: Activation of glycogen synthase can serve as a good marker for inhibition of GSK-3. […] Thus, activation of glycogen synthase by GSC-5 and GSC-7 was tested in C2C12 myotubes. C2C12 cells were treated with GSC-5 and GSC-7 for 2.5 hours at indicated concentrations and lysate supernatants were thereafter assayed for glycogen synthase activity. The activity of glycogen synthase in cells treated with vehicle DMSO (0.1% DMSO) was normalized to 1 unit and the values for glycogen synthase activity observed in cells treated with GSK-3 inhibitors are presented as fold stimulation over the cells treated with vehicle […].
# Activation of glycogen synthase by GSK-3 inhibitors: Activation of glycogen synthase activity in C2C12 cells treated with GSC-5 and GSC-7 was assayed as described hereinabove. The activity of glycogen synthase in cells treated with vehicle DMSO (0.1% DMSO) was normalized to 1 unit and the values for glycogen synthase activity observed in cells treated with GSK-3 (GS4 (hollow circles) GS6 (filled circles) are presented as fold stimulation over the cells treated with vehicle 0.1% HCL.
# Mice adipocytes = test: Glucose uptake in isolated adipocytes; format: cell-based; conditions: mouse primary adipocytes, 2.5 hours
# Method: Glucose uptake in isolated adipocytes: Mice adipocytes were isolated from epididymal fat pad by digestion with 0.8 mg/ml collagenase (Worthington Biochemical) as described previously (Lawrence et al., 1977). Digested fat pads were passed through nylon mesh and cells were washed 3 times with Krebs-bicarbonate buffer (pH=7.4) containing 1% bovine serum albumin (Fraction V, Boehringer Mannheim, Germany), 10 mM HEPES (pH=7.3), 5 mM glucose and 200 nM adenosine. Cells were incubated with GSC-4 and GSC-21 at indicated concentrations for 2.5 hours, followed by addition of 2-deoxy [^3H] glucose (0.5 μci/vial) for 10 minutes. The assay was terminated by centrifugation of cells through dinonylphthalate (ICN, USA). ^3H was thereafter quantitated by liquid scintillation analyzer (Packard). Nonspecific uptake of 2-deoxy-[^3H] glucose was determined by the addition of cytochalasin B (50 μM) 30 minutes prior to the addition of radioactive material.
# Glucose Uptake: The ability of the newly designed compounds GSC-4 and GSC-21 to promote glucose uptake was tested in mouse primary adipocytes as described hereinabove. The relative [^3H] 2-deoxy glucose incorporation observed in non-treated adipocytes was normalized to 1 unit and the values obtained for [^3H] 2-deoxy glucose in adipocytes treated with GSC-4 or GSC-21 are presented as fold activation over cells treated with the peptide control, and are the mean of 6 independent experiments±SEM, where each point was assayed in triplicate.
# GSK-3 = GSK-3 (Oryctolagus cuniculus, UniProt A0A5F9DUX8); test: Time course analyses of peptide phosphorylation by GSK-3; format: biochemical
# GSK-3, sequence (A0A5F9DUX8 entry or part of it): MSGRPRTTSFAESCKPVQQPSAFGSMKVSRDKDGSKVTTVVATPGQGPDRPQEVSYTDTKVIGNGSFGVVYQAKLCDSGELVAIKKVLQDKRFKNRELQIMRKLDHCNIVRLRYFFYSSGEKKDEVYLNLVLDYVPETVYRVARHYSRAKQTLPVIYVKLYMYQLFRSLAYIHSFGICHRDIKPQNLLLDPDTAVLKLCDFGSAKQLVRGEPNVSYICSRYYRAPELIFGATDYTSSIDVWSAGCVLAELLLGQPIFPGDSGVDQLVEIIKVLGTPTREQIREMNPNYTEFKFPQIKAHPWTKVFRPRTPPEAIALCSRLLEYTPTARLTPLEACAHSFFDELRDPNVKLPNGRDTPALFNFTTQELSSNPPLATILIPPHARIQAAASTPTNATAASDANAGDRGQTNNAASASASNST
# [3] = MP molecules, p9CREB peptide substrate, FIG. 19
compound,measurement,setting,value
"Cc1ncc(COP(=O)(O)O)c(C=O)c1O [pyridoxal phosphate, reference compound]",GSK-3 inhibition activity,[1],exerted an inhibition activity
"N=C(N)Nc1ccc(-c2cn(-c3cccc(COP(=O)(O)O)c3)nn2)cc1 [MP-4, 3-(4-(4-guanidinophenyl)-1,2,3-triazol-1-yl)benzyl phosphoric acid hydrochloride]",IC50,[2]; [3],~1000 µM
"N=C(N)NCc1cccc(COP(=O)(O)O)c1 [GSC-5, 3-(guanidinomethy)benzyl phosphate]",Inhibition of histone H1 phosphorylation by CDK-2,CDK-2,no inhibition of histone H1 phosphorylation was observed
same,"Glycogen synthase activity, fold stimulation over vehicle",glycogen synthase,1.5 fold
"NCCc1cc(CCN)cc(COP(=O)(O)O)c1 [GSC-21, 3,5-bis(2-aminoethyl)benzyl phosphate]","Glucose uptake ([3H] 2-deoxy glucose incorporation), fold activation",Mice adipocytes; 0.5 μM,1.7 fold
same,"Glucose uptake ([3H] 2-deoxy glucose incorporation), fold activation",Mice adipocytes; 5 μM,2.5 fold
"N=C(N)Nc1cc(COP(=O)(O)O)cc(NC(=N)N)c1 [GSC-7, 3,5-bisguanidino benzyl phosphate]",IC50,[2],500 µM
same,Kinetic nature of inhibition (Lineweaver-Burk plot),"[2]; phosphate incorporation into p9CREB, FIG. 8",competitive specific inhibitor
same,Inhibition of histone H1 phosphorylation by CDK-2,CDK-2,no inhibition of histone H1 phosphorylation was observed
same,"Glycogen synthase activity, fold stimulation over vehicle",glycogen synthase,1.8 fold
"O=P(O)(O)Oc1ccccc1 [phenyl phosphate, reference compound]",GSK-3 inhibition activity,[1],exerted an inhibition activity
ILSRRPSYR [9CREB],Phosphorylation of peptide by GSK-3 (substrate),GSK-3,completely failed to be phosphorylated
ILSRRPEYR [9ECREB],Phosphorylation of peptide by GSK-3 (substrate),GSK-3,completely failed to be phosphorylated
"N=C(N)Nc1cccc(COP(=O)(O)O)c1 [GSC-4, 3-guanidinobenzyl phosphate]",GSK-3 inhibition activity (ranking),"[1]; PGS-1 peptide substrate, FIG. 6",most active compounds
same,IC50,"[2]; p9CREB peptide substrate, FIGS. 7a-b, most active compounds",500 µM
same,Inhibition of histone H1 phosphorylation by CDK-2,CDK-2,no inhibition of histone H1 phosphorylation was observed
same,"Glucose uptake ([3H] 2-deoxy glucose incorporation), fold activation",Mice adipocytes; 10 μM,~2 fold
"N=C(N)Nc1cccc(-c2cn(-c3cccc(COP(=O)(O)O)c3)nn2)c1 [MP-1, 3-(4-(3-guanidinophenyl)-1,2,3-triazol-1-yl)benzyl phosphoric acid hydrochloride]",IC50,[2]; [3],~1000 µM
"Cc1ccc(COP(=O)(O)O)cc1 [GSC-2, p-methyl benzyl phosphate]",GSK-3 inhibition activity,[1],exerted an inhibition activity
